Results as given in patent US10774039B2, “Cyclopropene amino acids and methods” (United Kingdom Research and Innovation, priority 2014, dated 2020).

Tests used:
[1] = molecular target: PylRS/tRNACUA pair (Methanosarcina mazei, UniProt Q8PWY1); test: Dual luciferase reporter assay on ovary extract of flies fed amino acid; format: in vivo, D. melanogaster; parameters: expressed in transfected cells; host or cells: transgenic Drosophila melanogaster, ovaries (UAS-PylRS driven by nos-vp16-GAL4); conditions: flies fed 10 mM amino acid
Chain of PylRS/tRNACUA pair (Methanosarcina mazei, UniProt Q8PWY1) (Q8PWY1 whole entry, the tested form may be a part): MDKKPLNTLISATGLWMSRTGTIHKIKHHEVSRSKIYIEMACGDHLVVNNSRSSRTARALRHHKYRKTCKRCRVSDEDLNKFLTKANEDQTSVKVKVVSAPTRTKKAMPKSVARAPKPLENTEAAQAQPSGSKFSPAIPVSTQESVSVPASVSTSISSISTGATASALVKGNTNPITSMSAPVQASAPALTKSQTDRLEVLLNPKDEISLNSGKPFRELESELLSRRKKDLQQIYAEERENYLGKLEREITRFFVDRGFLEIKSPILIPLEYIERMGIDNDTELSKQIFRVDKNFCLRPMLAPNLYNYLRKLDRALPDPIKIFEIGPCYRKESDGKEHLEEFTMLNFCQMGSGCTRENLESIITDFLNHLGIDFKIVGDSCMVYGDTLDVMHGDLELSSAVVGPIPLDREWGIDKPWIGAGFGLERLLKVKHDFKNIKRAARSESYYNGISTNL
Protocol: Dual luciferase assay on ovary extract from 10 female flies expressing Triple-Rep-L in the presence or absence of 10 mM 1 or 10 mM 3. […] The error bars represent the standard deviation of 3 technical replicates from a single biological replicate. FIG. 10B: Site-specific incorporation of 3 (or 1) into GFP_TAG_mCherry-HA in flies expressing PylRS/PyltRNACUA. The full-length protein resulting from unnatural amino acid incorporation is detected by anti-HA western blot. FIG. 10C: Specific labelling of encoded 3 with tetrazine probes. Flies were fed with no amino acid, amino acid 1 (500 flies) or amino acid 3 (100 flies). […] The full-length protein containing the unnatural amino acid was immunoprecipitated from lysed ovaries with anti-GFP beads. The beads were labelled (4g, 4 μM, 200 μL, PBS, RT, 2 h) washed.
Transgenic lines were created by P element insertion using a Drosophila embryo injection service (BestGene Inc.). Lines were generated using the following plasmids: pFT58 (Ala), pFT60 (Ser), pFT62 (Leu) and pFT63 (Met). nos-Gal4-VP16 (Bloomington 4937) and MS1096-Gal4 (Bloomington 8860) were used as Gal4 drivers. All flies were grown at 25° C. on standard Iberian medium. Flies were fed unnatural amino acids by mixing dried yeast with the appropriate concentration of amino acid (usually 10 mM) diluted in dH2O to make a paste. Ovaries were prepared from females that were grown on Iberian fly food supplemented with a yeast paste with or without the amino acid for a minimum of 48 hours. For proteome labelling experiments transgenic male flies of constructs FT58, FT60, FT62 and FT63 were crossed with nos-vp16-GAL4 virgins to generate FT58/nos-vp16-GAL4, FT60/nos-vp16-GAL4, FT62/nos-vp16-GAL4 and FT63/nos-vp16-GAL4 respectively.
Ovaries from 10 females of Triple Rep-L flies recombined with nos-Gal4-VP16 fed 3, 1 or no amino acid were dissected in 100 μl 1× Passive lysis buffer and processed for luciferase assays as previously described^20.

[2] = tested on: PylRS/tRNACUA pair; test: Site-specific incorporation into sfGFP150TAG expressed in E. coli; format: cell-based, Methanosarcina barkeri; conditions: SfGFP gene with amber codon at position 150, E. coli, PylRS/tRNACUA pair
Protocol: FIG. 2A: The PylRS/RNACUA pair directs efficient, site-specific incorporation of 3 into sfGFP bearing an amber stop codon at position 150.
Expression and purification of sfGFP-3 from E. coli Electrocompetent E. coli DH10B cells were co-transformed with pBK-MbPylRS and psfGFP150TAG PyIT^14, 26. Transformed cells were recovered in S.O.B. (1 mL, supplemented with 0.2% glucose) for 1 h at 37° C. and used to inoculate LB containing 50 μg/mL kanamycin and 25 μg/mL tetracycline (LB-KT). The cells were incubated with shaking overnight at 37° C., 250 r.p.m. 1 mL of overnight culture was used to inoculate 100 mL of LB-KT½, the day culture was then incubated (37° C., 250 r.p.m). At O.D.600˜0.3, the culture was divided equally and supplemented with either 3 (1 mM) or H2O (500 μL) and incubated further (37° C., 250 r.p.m). At O.D.600˜0.6 protein expression was induced by the addition of arabinose (0.2%), after 4 h, the cells were harvested by centrifugation (4000 r.p.m, 20 min) and the pellet frozen until further use.
The frozen bacterial pellet was thawed on ice and resuspended in 2.5 mL lysis buffer (Bugbuster®, Novagen®, 50 μg/mL DNAse 1, Roche inhibitor cocktail and 20 mM imidazole). Cells were incubated (4° C., 30 minutes) then clarified by centrifugation (16000 g, 4° C., 30 minutes). The clarified lysates were transferred to fresh tubes and 100 μL Ni-NTA slurry added. The mixtures was incubated with agitation (4° C., 1 h) and then collected by centrifugation (1000 g, 4° C., 5 min). The beads were resuspended three times in 500 μL wash buffer (10 mM Tris-HCL, 40 mM imidazole, 200 mM NaCl, pH 8) and collected by centrifugation (1000 g, 4° C., 5 min). Finally, the beads were resuspended in 100 μL, elution buffer (10 mM Tris-HCL, 300 mM imidazole, 200 mM NaCl, pH 8), pelleted by centrifugation (1000 g, 4° C., 5 min) and the supernatant collected into fresh tubes. The elution was repeated three times with 100 μL of elution buffer. The purified proteins were analysed by 4-12% SDS-PAGE and LC-MS.

CC(C)(C)OC(=O)NCCCC[C@H](N)C(=O)O [amino acid 1, N^ε-[(tert-butoxy)carbonyl]-L-lysine, reference compound]
luciferase signal dependent on amino acid addition [1]: strong luciferase signal
yield of protein [2]: 4 mg per litre of culture
